Test results as given in patent US9334269B2, “Carboxamides as inhibitors of voltage-gated sodium channels” (AMGEN INC., priority 2010, dated 2016).

Target: T1, human Nav1.7 (hNav1.7) (Homo sapiens, UniProt Q15858)
T1 construct: expressed in transfected cells
Assay: hNav1.7 whole-cell patch-clamp electrophysiology (automated PatchXpress 7000A or manual) in stably expressing 293 cells
Type: cell-based
Conditions: average IC50
How it was run: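 Stably transfected 293 cells lacking endogenous sodium channels; peak current evoked by depolarizing pulses during increasing compound concentrations, automated at ~20% fractional inactivation, or manually at −140 mV (resting) and ~20% inactivation. Block taken at steady state, corrected for rundown; IC50 by Hill fit.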

T1 sequence (Q15858 whole entry): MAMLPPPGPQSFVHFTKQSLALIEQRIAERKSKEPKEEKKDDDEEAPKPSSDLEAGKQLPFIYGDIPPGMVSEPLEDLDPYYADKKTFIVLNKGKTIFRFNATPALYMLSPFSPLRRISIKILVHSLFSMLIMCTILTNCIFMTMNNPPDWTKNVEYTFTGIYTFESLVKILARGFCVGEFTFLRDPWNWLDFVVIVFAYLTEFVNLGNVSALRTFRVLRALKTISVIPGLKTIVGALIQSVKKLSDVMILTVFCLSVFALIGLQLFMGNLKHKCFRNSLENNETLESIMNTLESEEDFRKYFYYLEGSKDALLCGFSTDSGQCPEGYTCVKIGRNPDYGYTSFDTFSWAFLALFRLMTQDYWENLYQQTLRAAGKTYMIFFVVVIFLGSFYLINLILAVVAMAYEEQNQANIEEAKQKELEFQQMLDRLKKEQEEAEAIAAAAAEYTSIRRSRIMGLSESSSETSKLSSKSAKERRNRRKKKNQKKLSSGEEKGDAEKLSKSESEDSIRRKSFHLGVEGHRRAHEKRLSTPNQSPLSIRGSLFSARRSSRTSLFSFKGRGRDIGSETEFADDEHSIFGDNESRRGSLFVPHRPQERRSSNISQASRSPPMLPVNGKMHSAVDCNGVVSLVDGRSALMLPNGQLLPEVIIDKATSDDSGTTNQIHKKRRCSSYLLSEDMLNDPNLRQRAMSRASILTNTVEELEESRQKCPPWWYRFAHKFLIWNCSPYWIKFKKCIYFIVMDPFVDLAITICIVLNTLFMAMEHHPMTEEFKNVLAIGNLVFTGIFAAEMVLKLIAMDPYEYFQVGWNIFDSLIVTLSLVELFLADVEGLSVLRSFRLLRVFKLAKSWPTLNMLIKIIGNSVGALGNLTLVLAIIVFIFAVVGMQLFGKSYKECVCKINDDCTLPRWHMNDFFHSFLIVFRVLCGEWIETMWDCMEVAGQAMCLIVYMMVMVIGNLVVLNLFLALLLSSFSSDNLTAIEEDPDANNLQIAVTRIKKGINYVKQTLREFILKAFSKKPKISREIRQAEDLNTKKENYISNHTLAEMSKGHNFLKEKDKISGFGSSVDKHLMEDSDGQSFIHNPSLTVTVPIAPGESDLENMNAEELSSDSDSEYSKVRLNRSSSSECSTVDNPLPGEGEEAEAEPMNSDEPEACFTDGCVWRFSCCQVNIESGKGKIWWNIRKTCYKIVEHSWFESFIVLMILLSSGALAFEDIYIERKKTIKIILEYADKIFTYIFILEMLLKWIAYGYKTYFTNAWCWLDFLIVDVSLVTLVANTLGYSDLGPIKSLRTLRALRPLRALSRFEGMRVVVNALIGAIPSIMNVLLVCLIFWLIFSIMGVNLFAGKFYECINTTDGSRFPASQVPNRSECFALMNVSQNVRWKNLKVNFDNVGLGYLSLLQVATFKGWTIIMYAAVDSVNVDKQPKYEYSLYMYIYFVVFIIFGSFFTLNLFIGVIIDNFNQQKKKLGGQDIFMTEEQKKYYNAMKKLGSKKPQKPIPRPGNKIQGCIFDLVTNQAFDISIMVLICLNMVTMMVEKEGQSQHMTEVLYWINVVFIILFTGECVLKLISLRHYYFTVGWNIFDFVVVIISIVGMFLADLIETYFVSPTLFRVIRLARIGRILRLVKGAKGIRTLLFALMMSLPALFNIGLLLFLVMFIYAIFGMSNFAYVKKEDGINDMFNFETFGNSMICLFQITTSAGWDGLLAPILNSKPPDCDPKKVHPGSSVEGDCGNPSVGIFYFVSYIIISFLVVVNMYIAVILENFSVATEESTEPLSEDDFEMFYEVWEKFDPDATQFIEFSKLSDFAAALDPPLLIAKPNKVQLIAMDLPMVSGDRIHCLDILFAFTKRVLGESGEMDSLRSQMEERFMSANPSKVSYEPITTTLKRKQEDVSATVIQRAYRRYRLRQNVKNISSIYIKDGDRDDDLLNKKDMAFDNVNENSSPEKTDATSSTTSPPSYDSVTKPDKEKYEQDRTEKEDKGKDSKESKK

IC50 [µM] | SMILES
27.9 | CNC(=O)c1cccc(Nc2ncnc(N3CCc4cccc(OC)c4C3)n2)c1 [Example 281]
22.1 | CNC(=O)c1cccc(Nc2ncnc(N3CC(Oc4c(F)cccc4F)C3)n2)c1 [Example 274]
> 30 | CNC(=O)c1cccc(Nc2ncnc(N3CCc4cc(C(O)C(F)(F)F)ccc4C3)n2)c1 (centres unmarked) [Example 292]
> 30 | CNC(=O)c1cccc(Nc2ncnc(N3CCc4ccc(C(F)(F)F)cc4C3)n2)c1 [Example 298]
23.6 | CNC(=O)c1cccc(Nc2ncnc(N3CC(COc4ccccc4C(F)(F)F)C3)n2)c1 [Example 276]

Same assay, conditions: average IC50, human Nav1.7

SMILES | IC50 [µM]
CNC(=O)c1cccc(Nc2ncnc(N3CCC(c4nc(-c5ccccc5)no4)CC3)n2)c1 [Example 140] | 2.79
CNC(=O)c1cccc(Nc2nccc(N3CC(Oc4ccc(Cl)c(F)c4)C3)n2)c1 [Example 55] | 0.74
CNC(=O)c1cccc(Nc2ncnc(N3CC(COc4ccccc4OC(F)(F)F)C3)n2)c1 [Example 229] | 9.44
CNC(=O)c1cccc(Nc2nccc(N3CC(Oc4ccc(F)c(F)c4)C3)n2)c1 [Example 106] | 1.6
CNC(=O)c1cccc(Nc2ncnc(N3CCN(c4ccc(F)cc4)CC3)n2)c1 [Example 198] | 6.83
CNC(=O)c1cccc(Nc2ncnc(N3CC(COc4cccc5ccccc45)C3)n2)c1 [Example 253] | 15.2
CNC(=O)c1cc(F)cc(Nc2ncnc(N3CC(COc4ccc(Cl)cc4)C3)n2)c1 [Example 173] | 4.56
CNC(=O)c1cccc(Nc2ncnc(N3CC(c4ccc(Cl)cc4)C3)n2)c1 [Example 184] | 5.23
CNC(=O)c1cc(F)cc(Nc2ncnc(N3CC(Oc4ccc(Cl)cc4)C3)n2)c1 [Example 37] | 0.49
CNC(=O)c1cccc(Nc2ncnc(N3CC(Oc4ccc(F)c(F)c4F)C3)n2)c1 [Example 226] | 9.35
CNC(=O)c1cc(Nc2ncnc(N3CC(Oc4ccc(Cl)cc4F)C3)n2)ccc1F [Example 14] | 0.28
CNC(=O)c1cccc(Nc2ncnc(NCCCOc3ccc(OC(F)(F)F)cc3)n2)c1C [Example 156] | 3.34
CNC(=O)c1cccc(Nc2ncnc(N3CCC(C#N)(c4ccc(Cl)cc4)CC3)n2)c1 [Example 147] | 2.92
CNC(=O)c1cccc(Nc2ncnc(N3CC(OCc4ccc(Cl)cc4)C3)n2)c1 [Example 113] | 1.82
CNC(=O)c1cccc(Nc2ncnc(N3CCC(Sc4ccc(C)cc4)CC3)n2)c1 [Example 250] | 13.1
CNC(=O)c1cccc(Nc2ncnc(N3CCC(c4ccc(Cl)cc4)CC3)n2)c1 [Example 249] | 13.1
CC(C)(C)NC(=O)c1cccc(Nc2ncnc(N3CC(Oc4ccc(F)cc4)C3)n2)c1 [Example 213] | 8.39
CNC(=O)c1cccc(Nc2ncnc(N3CCC(OCc4ccccc4)CC3)n2)c1 [Example 206] | 7.93
CNC(=O)c1cc(Nc2ncnc(NCCCOc3cccc(C(F)(F)F)c3)n2)ccc1Cl [Example 164] | 3.75
CNC(=O)c1cccc(Nc2ncnc(N3CC(Oc4c(F)cc(Cl)cc4F)C3)n2)c1 [Example 153] | 3.16
CNC(=O)c1cccc(Nc2ncnc(N3CCC(COCC4CC4)CC3)n2)c1 [Example 261] | 17.7
CN(C)C(=O)c1cccc(Nc2ncnc(N3CCC(OCc4ccc(OC(F)(F)F)cc4)CC3)n2)c1 [Example 240] | 11.1
CNC(=O)c1cccc(Nc2ncnc(N3CCC(Oc4ccccc4Cl)CC3)n2)c1 [Example 85] | 1.17
CNC(=O)c1cc(Nc2ncnc(NCCCOc3ccc(OC(F)(F)F)cc3)n2)ccc1Cl [Example 75] | 0.96
CNC(=O)c1cc(Nc2ncnc(N3CC(Oc4ccc(Cl)cc4)C3)n2)ccc1Cl [Example 162] | 3.69
CNC(=O)c1cccc(Nc2ncnc(N3CC(Oc4cccc(C(F)(F)F)c4F)C3)n2)c1 [Example 256] | 16.7
CNC(=O)c1cccc(Nc2ncnc(N3CCN(c4ccccc4F)CC3)n2)c1 [Example 95] | 1.35
CNC(=O)c1cc(F)cc(Nc2ncnc(N3CC(Oc4ccc(F)cc4)C3)n2)c1 [Example 98] | 1.41
CNC(=O)c1cccc(Nc2nccc(N3CC(Oc4ccc(Cl)cc4)C3)n2)c1 [Example 30] | 0.43

The remaining lines, values ahead:

IC50 [µM] | SMILES
0.28 | CNC(=O)c1cccc(Nc2ncnc(N3CC(Oc4ccc(F)c(Cl)c4)C3)n2)c1 [Example 15]
1.44 | CNC(=O)c1cccc(Nc2ncnc(N3CCC(Oc4ccc(OCC(F)(F)F)cc4)CC3)n2)c1 [Example 101]
9.19 | CNC(=O)c1cccc(Nc2ncnc(N3CC(COc4ccc(OC)cc4)C3)n2)c1 [Example 223]
4.05 | CNC(=O)c1cccc(Nc2ncnc(N3CCC(Oc4ccc(Cl)c(OC(F)(F)F)c4)CC3)n2)c1 [Example 166]
5.79 | CNC(=O)c1cccc(Nc2ncnc(N3CCC(Oc4ccc(F)c(OC(F)(F)F)c4)CC3)n2)c1 [Example 193]
2.1 | CNC(=O)c1cccc(Nc2ncnc(N3CCC(Oc4cccc(Cl)c4)CC3)n2)c1 [Example 122]
0.38 | CNC(=O)c1cccc(Nc2ncnc(N3CC(Oc4cccc(Cl)c4)C3)n2)c1 [Example 25]
3.5 | CNC(=O)c1cccc(Nc2ncnc(N3CC(COc4ccc(Cl)c(Cl)c4)C3)n2)c1 [Example 158]
0.98 | CNC(=O)c1cccc(Nc2ncnc(N3CCc4cc(OCCC(F)(F)F)ccc4C3)n2)c1 [Example 77]
8.9 | NC(=O)c1cccc(Nc2ncnc(N3CCc4cc(Br)ccc4C3)n2)c1 [Example 221]
2.55 | CNC(=O)c1cccc(Nc2ncnc(N3CC=C(c4ccc(C)c(C)c4)CC3)n2)c1 [Example 133]
8.6 | CNC(=O)c1cccc(Nc2ncnc(N3CCc4cc(C(F)(F)F)ccc4C3)n2)c1 [Example 216]
2.31 | CCn1c2c(c3ccccc31)CN(c1ncnc(Nc3cccc(C(=O)NC)c3)n1)CC2 [Example 127]
2.8 | CNC(=O)c1cccc(Nc2ncnc(N3CCc4c(Cl)cccc4C3)n2)c1 [Example 142]
10 | CNC(=O)c1cccc(Nc2ncnc(N3CC(COc4ccc5ccccc5c4)C3)n2)c1 [Example 234]
2.72 | CNC(=O)c1cccc(Nc2ncnc(N3CC=C(c4ccc(OC(F)(F)F)cc4)CC3)n2)c1 [Example 136]
1.29 | CNC(=O)c1cccc(Nc2ncnc(N3CC(COc4ccc(Cl)c(F)c4)C3)n2)c1 [Example 91]
1.2 | CNC(=O)c1cccc(Nc2ncnc(N3CC(Oc4cccc(F)c4)C3)n2)c1 [Example 86]
2.73 | CNC(=O)c1cccc(Nc2ncnc(N3CCc4c(cccc4OCC(F)(F)F)C3)n2)c1 [Example 137]
9.87 | CNC(=O)c1cccc(Nc2ncnc(N3CCc4cc(OCCOC)ccc4C3)n2)c1 [Example 233]
0.3 | CCc1cccc(OC2CN(c3ncnc(Nc4cccc(C(=O)NC)c4)n3)C2)c1 [Example 17]
1.23 | CNC(=O)c1cccc(Nc2ncnc(N3CC(Oc4ccc(OC)cc4)C3)n2)c1 [Example 87]

Same assay, conditions: human Nav1.7 stably expressed in 293 cells; whole-cell patch clamp; average IC50 from Hill fit

IC50 [µM] | SMILES
0.34 | CNC(=O)c1cccc(Nc2nc(N3CC(Oc4ccc(F)cc4)C3)ncc2F)c1 [Example AH, 3-((5-fluoro-2-(3-(4-fluorophenoxy)-1-azetidinyl)-4-pyrimidinyl)amino)-N-methylbenzamide]
> 30 | CNC(=O)c1cccc(Nc2ncnc(N3CC(Oc4ccc(Cl)cc4F)C3)c2F)c1 [Example AB, 3-((6-(3-(4-chloro-2-fluorophenoxy)-1-azetidinyl)-5-fluoro-4-pyrimidinyl)-amino)-N-methylbenzamide]
2.3 | CNC(=O)c1cccc(Nc2nccc(N3CC(Oc4ccc(Cl)cc4F)C3)n2)c1 [Example M, 3-((4-(3-(4-chloro-2-fluorophenoxy)-1-azetidinyl)-2-pyrimidinyl)amino)-N-methylbenzamide]
7.15 | CNC(=O)c1cccc(Nc2ccnc(N3CC(Oc4ccc(Cl)cc4F)C3)c2)c1 [Example AA, 3-((2-(3-(4-chloro-2-fluorophenoxy)-1-azetidinyl)-4-pyridinyl)amino)-N-methylbenzamide]
> 30 | CNC(=O)c1cccc(Nc2nc(C)nc(N3CC(Oc4ccc(Cl)cc4F)C3)n2)c1 [Example U, 3-(4-(3-(4-chloro-2-fluorophenoxy)azetidin-1-yl)-6-methyl-1,3,5-triazin-2-ylamino)-N-methylbenzamide]
> 30 | CNC(=O)c1cccc(Oc2ncnc(N3CC(Oc4ccc(Cl)cc4F)C3)n2)c1 [Example AE, 3-((4-(3-(4-chloro-2-fluorophenoxy)-1-azetidinyl)-1,3,5-triazin-2-yl)oxy)-N-methylbenzamide]
0.52 | CNC(=O)c1cccc(Nc2nccc(N3CC(Oc4ccc(Cl)cc4Cl)C3)n2)c1 [Example AAA, 3-(4-(3-(2,4-dichlorophenoxy)azetidin-1-yl)pyrimidin-2-ylamino)-N-methylbenzamide]
4.5 | CNC(=O)c1cccc(Nc2cc(N3CC(Oc4ccc(Cl)cc4F)C3)ccn2)c1 [Example T, 3-(4-(3-(4-chloro-2-fluorophenoxy)azetidin-1-yl)pyridin-2-ylamino)-N-methylbenzamide]
2.78 | CNC(=O)c1cccc(Nc2cccc(N3CC(Oc4ccc(Cl)cc4F)C3)n2)c1 [Example W, 3-((6-(3-(4-chloro-2-fluorophenoxy)-1-azetidinyl)-2-pyridinyl)amino)-N-methylbenzamide]
2 | CNC(=O)c1cccc(Nc2nccc(N3CC(Oc4ccc(C)cc4)C3)n2)c1 [Example B, N-methyl-3-((4-(3-(4-methylphenoxy)-1-azetidinyl)-2-pyrimidinyl)amino)benzamide]

SMILES | IC50 [µM]
CNC(=O)c1cccc(Nc2nccc(N3CC(Oc4ccc(F)cc4C)C3)n2)c1 [Example J, 3-((4-(3-(4-fluoro-2-methylphenoxy)-1-azetidinyl)-2-pyrimidinyl)amino)-N-methylbenzamide] | 0.08
CNC(=O)c1cccc(Nc2nccc(N3CC(Oc4ccc(Cl)cc4C)C3)n2)c1 [Example N, 3-((4-(3-(4-chloro-2-methylphenoxy)-1-azetidinyl)-2-pyrimidinyl)amino)-N-methylbenzamide] | 0.26
